From patent US20260078120A1, “SUBSTITUTED PYRIDOPYRIMIDINONES” (MIRATI THERAPEUTICS, INC., priority 2022, published 2026)

Assays:
[1] = system: SKBR3 (PI3Kα wild type) cells; test: CellTiter-Glo 2.0 luminescent cell viability assay, 72 hours, SKBR3 cells; format: cell-based; settings: Homo sapiens, SK-BR-3, 72 h, SKBR3 (PI3Kα wild type) cells, CellTiter-Glo, approximately 72 hours; read-out: SKBR3 (WT) Viability IC50
Procedure, shortened: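 Viability measured via CTG luminescence following roughly 72 hours of compound exposure at 37° C. Dosing used a 10 um starting concentration diluted 1:4 over 10 points; percent-of-vehicle data fitted with a variable-slope four-parameter model for IC50.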

[2] = system: T47D (PI3Kα H1047R mutant) cells; test: CellTiter-Glo 2.0 luminescent cell viability assay, 72 hours, T47D cells; format: cell-based; settings: Homo sapiens, T47D, 72 h, T47D (PI3Kα H1047R mutant) cells, CellTiter-Glo, approximately 72 hours; read-out: T47D (H1047R mutant) Viability IC50
Procedure, shortened: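 Cells seeded at 1000 per well overnight were dosed with a 10-concentration, 1:4 series starting at 10 µM and incubated ~72 h at 37° C. Viability was read by CellTiter-Glo 2.0 luminescence after 30 min at room temperature. IC50 came from four-parameter fits of percent vehicle control.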

Row | SMILES | IC50 [1] [µM] | IC50 [2] [µM]
1 | Cc1cc([C@@H](C)Nc2ccccc2C(=O)O)c2nc(N3CCN(C4COC4)CC3)c(C)c(=O)n2c1 [Example 11-153, (R)-2-((1-(3,7-dimethyl-2-(4-(oxetan-3-yl)piperazin-1-yl)-4-oxo-4H-pyrido[1,2-a]pyrimidin-9-yl)ethyl)amino)benzoic acid] | > 10 | 0.88
2 | C[C@H](Nc1ccccc1C(=O)O)c1cc(C(F)F)cn2c(=O)c(C#N)c(N3CCC(F)(F)CC3)nc12 [Example 11-169, (S)-2-((1-(3-cyano-7-(difluoromethyl)-2-(4,4-difluoropiperidin-1-yl)-4-oxo-4H-pyrido[1,2-a]pyrimidin-9-yl)ethyl)amino)benzoic acid] | > 10 | > 10
3 | Cc1cc([C@@H](C)Nc2ccccc2C(=O)O)c2nc(C3CC3)c(C#N)c(=O)n2c1 [Example 11-244, (R)-2-((1-(3-cyano-2-cyclopropyl-7-methyl-4-oxo-4H-pyrido[1,2-a]pyrimidin-9-yl)ethyl)amino)benzoic acid] | > 10 | 0.116
4 | Cc1cc([C@@H](C)Nc2cccn(C)c2=O)c2nc(N3CCCCC3)c(C)c(=O)n2c1 [Example 11-278, (R)-3,7-dimethyl-9-(1-((1-methyl-2-oxo-1,2-dihydropyridin-3-yl)amino)ethyl)-2-(piperidin-1-yl)-4H-pyrido[1,2-a]pyrimidin-4-one] | > 10 | 8.35
5 | Cc1cc(C(C)Nc2ccccc2C(=O)O)c2nc(N3Cc4ccccc4C3)c(C#N)c(=O)n2c1 (stereo not shown) [Example 11-349, 2-((1-(3-cyano-2-(isoindolin-2-yl)-7-methyl-4-oxo-4H-pyrido[1,2-a]pyrimidin-9-yl)ethyl)amino)benzoic acid] | > 10 | 0.332
6 | Cc1cc([C@@H](C)Nc2ccccc2C(=O)O)c2nc(N3CCC(c4ccccc4)C3)c(C)c(=O)n2c1 (stereo partly drawn) [Example 11-14, 2-(((1R)-1-(3,7-dimethyl-4-oxo-2-(3-phenylpyrrolidin-1-yl)-4H-pyrido[1,2-a]pyrimidin-9-yl)ethyl)amino)benzoic acid] | > 10 | 0.233
7 | Cc1cc([C@@H](C)Nc2ccccc2C(=O)O)c2nc(N3CC[C@@H](C)C(F)(F)C3)c(C)c(=O)n2c1 [Example 11-59, 2-(((R)-1-(2-((R)-3,3-difluoro-4-methylpiperidin-1-yl)-3,7-dimethyl-4-oxo-4H-pyrido[1,2-a]pyrimidin-9-yl)ethyl)amino)benzoic acid] | > 10 | 0.273
8 | Cc1cc([C@@H](C)Nc2ccccc2C(=O)O)c2nc(NCC3(C(F)(F)F)CC3)c(C#N)c(=O)n2c1 [Example 11-159, (R)-2-((1-(3-cyano-7-methyl-4-oxo-2-(((1-(trifluoromethyl)cyclopropyl)methyl)amino)-4H-pyrido[1,2-a]pyrimidin-9-yl)ethyl)amino)benzoic acid] | > 10 | 0.176
9 | COc1ccc(C2CCN(c3nc4c([C@@H](C)Nc5ccccc5C(=O)O)cc(C)cn4c(=O)c3C)CC2)cc1 [Example 11-39, (R)-2-((1-(2-(4-(4-methoxyphenyl)piperidin-1-yl)-3,7-dimethyl-4-oxo-4H-pyrido[1,2-a]pyrimidin-9-yl)ethyl)amino)benzoic acid] | > 10 | 0.114
10 | Cc1cc([C@@H](C)Nc2ccccc2C(=O)O)c2nc(N3CC4(CCC4(F)F)C3)c(C#N)c(=O)n2c1 [Example 11-200, (R)-2-((1-(3-cyano-2-(5,5-difluoro-2-azaspiro[3.3]heptan-2-yl)-7-methyl-4-oxo-4H-pyrido[1,2-a]pyrimidin-9-yl)ethyl)amino)benzoic acid] | > 10 | 0.129
11 | Cc1cc(C(C)Nc2cnc(Cl)cc2C(=O)O)c2nc(N3Cc4ccccc4C3)c(C)c(=O)n2c1 (stereo not shown) [Example 11-348, 2-chloro-5-((1-(2-(isoindolin-2-yl)-3,7-dimethyl-4-oxo-4H-pyrido[1,2-a]pyrimidin-9-yl)ethyl)amino)isonicotinic acid] | > 10 | 5.49
12 | Cc1cc([C@@H](C)Nc2ccccc2C(=O)O)c2nc(N3CCN(c4cn(C)nc4C(F)(F)F)CC3)c(C#N)c(=O)n2c1 [Example 11-173, (R)-2-((1-(3-cyano-7-methyl-2-(4-(1-methyl-3-(trifluoromethyl)-1H-pyrazol-4-yl)piperazin-1-yl)-4-oxo-4H-pyrido[1,2-a]pyrimidin-9-yl)ethyl)amino)benzoic acid] | > 10 | 0.145

Now from value to molecule:

Row | IC50 [1] [µM] | IC50 [2] [µM] | SMILES
13 | > 10 | 0.323 | Cc1cc([C@@H](C)Nc2ccccc2C(=O)O)c2nc(N3CC4CC3C4)c(C)c(=O)n2c1 [Example 11-127, (R)-2-((1-(2-(2-azabicyclo[2.1.1]hexan-2-yl)-3,7-dimethyl-4-oxo-4H-pyrido[1,2-a]pyrimidin-9-yl)ethyl)amino)benzoic acid]
14 | > 10 | 0.37 | Cc1cc([C@@H](C)Nc2ccccc2C(=O)O)c2nc(N3CCN(c4cn(C)nc4C#N)CC3)c(C#N)c(=O)n2c1 [Example 11-184, (R)-2-((1-(3-cyano-2-(4-(3-cyano-1-methyl-1H-pyrazol-4-yl)piperazin-1-yl)-7-methyl-4-oxo-4H-pyrido[1,2-a]pyrimidin-9-yl)ethyl)amino)benzoic acid]
15 | > 10 | 0.439 | Cc1cc([C@@H](C)Nc2ccccc2C(=O)O)c2nc(N3CCC[C@@H](C(F)(F)F)C3)c(C#N)c(=O)n2c1 [Example 11-209, 2-(((R)-1-(3-cyano-7-methyl-4-oxo-2-((R)-3-(trifluoromethyl)piperidin-1-yl)-4H-pyrido[1,2-a]pyrimidin-9-yl)ethyl)amino)benzoic acid]
16 | > 10 | 0.155 | Cc1cc([C@@H](C)Nc2ccccc2C(=O)O)c2nc(N3C[C@H]4C[C@@H]3C(F)(F)C4)c(C)c(=O)n2c1 [Example 11-228, 2-(((R)-1-(2-((1R,4S)-6,6-difluoro-2-azabicyclo[2.2.1]heptan-2-yl)-3,7-dimethyl-4-oxo-4H-pyrido[1,2-a]pyrimidin-9-yl)ethyl)amino)benzoic acid]
17 | > 10 | 1.57 | Cc1cc([C@@H](C)Nc2ccccc2C(=O)O)c2nc(N3C[C@@H]4C[C@H]3CN4c3ccc(C#N)cc3)c(C)c(=O)n2c1 [Example 11-177, 2-(((R)-1-(2-((1S,4S)-5-(4-cyanophenyl)-2,5-diazabicyclo[2.2.1]heptan-2-yl)-3,7-dimethyl-4-oxo-4H-pyrido[1,2-a]pyrimidin-9-yl)ethyl)amino)benzoic acid]
18 | > 10 | > 10 | Cc1cc(C(C)Nc2cccc(C)c2C(=O)O)c2nc(N3CCCCC3)cc(=O)n2c1 (stereo not shown) [Example 11-390, 2-methyl-6-((1-(7-methyl-4-oxo-2-(piperidin-1-yl)-4H-pyrido[1,2-a]pyrimidin-9-yl)ethyl)amino)benzoic acid]
19 | 5.22 | 0.06 | Cc1cc([C@@H](C)Nc2ccccc2C(=O)O)c2nc(N3CC(C)C(F)(F)C3)c(C)c(=O)n2c1 (stereo partly drawn) [Example 11-121, 2-(((1R)-1-(2-(3,3-difluoro-4-methylpyrrolidin-1-yl)-3,7-dimethyl-4-oxo-4H-pyrido[1,2-a]pyrimidin-9-yl)ethyl)amino)benzoic acid]
20 | > 10 | 0.204 | Cc1cc([C@@H](C)Nc2ccccc2C(=O)O)c2nc(NCC(C)C(F)(F)F)c(C#N)c(=O)n2c1 (stereo partly drawn) [Example 11-49, 2-(((1R)-1-(3-cyano-7-methyl-4-oxo-2-((3,3,3-trifluoro-2-methylpropyl)amino)-4H-pyrido[1,2-a]pyrimidin-9-yl)ethyl)amino)benzoic acid]
21 | > 10 | 4.88 | C=C(C#N)CNc1nc2c([C@@H](C)Nc3ccccc3C(=O)O)cc(C)cn2c(=O)c1C [Example 11-110, (R)-2-((1-(2-((2-cyanoallyl)amino)-3,7-dimethyl-4-oxo-4H-pyrido[1,2-a]pyrimidin-9-yl)ethyl)amino)benzoic acid]
22 | > 10 | 0.641 | Cc1cc([C@@H](C)Nc2ccccc2C(=O)O)c2nc(N3CCC4(C3)CC(F)(F)C4(F)F)c(C)c(=O)n2c1 (stereo partly drawn) [Example 11-436, 2-(((1R)-1-(3,7-dimethyl-4-oxo-2-(1,1,2,2-tetrafluoro-6-azaspiro[3.4]octan-6-yl)-4H-pyrido[1,2-a]pyrimidin-9-yl)ethyl)amino)benzoic acid]
23 | > 10 | 2.42 | Cc1cc(C(C)Nc2ccccc2C(=O)O)c2nc(N3Cc4cccc(C#N)c4C3)cc(=O)n2c1 (stereo not shown) [Example 11-338, 2-((1-(2-(4-cyanoisoindolin-2-yl)-7-methyl-4-oxo-4H-pyrido[1,2-a]pyrimidin-9-yl)ethyl)amino)benzoic acid]
24 | > 10 | 0.117 | Cc1cc([C@@H](C)Nc2ccccc2C(=O)O)c2nc(N3CC4(CCC4(F)F)C3)c(C)c(=O)n2c1 [Example 11-201, (R)-2-((1-(2-(5,5-difluoro-2-azaspiro[3.3]heptan-2-yl)-3,7-dimethyl-4-oxo-4H-pyrido[1,2-a]pyrimidin-9-yl)ethyl)amino)benzoic acid]
25 | > 10 | 6.64 | Cc1cc([C@@H](C)Nc2ccccc2C(=O)O)c2nc(N[C@@H](C)c3cccnc3)c(C#N)c(=O)n2c1 [Example 11-52, 2-(((R)-1-(3-cyano-7-methyl-4-oxo-2-(((S)-1-(pyridin-3-yl)ethyl)amino)-4H-pyrido[1,2-a]pyrimidin-9-yl)ethyl)amino)benzoic acid]
26 | > 10 | 0.379 | Cc1cc([C@@H](C)Nc2ccccc2C(=O)O)c2nc(N3CC(F)(F)C3)c(C)c(=O)n2c1 [Example 11-115, (R)-2-((1-(2-(3,3-difluoroazetidin-1-yl)-3,7-dimethyl-4-oxo-4H-pyrido[1,2-a]pyrimidin-9-yl)ethyl)amino)benzoic acid]
